#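 Assay format: 96-well plates, 48-hour exposure. At the GI50, growth is halved. At the TGI there is no net growth.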
# How the values were obtained:
# Assay in all cases: NCI tumour cell line growth inhibition, 48 h
# RPMI-8226 leukemia = test system: RPMI-8226 leukemia
# MDA-MB-435 = test system: MDA-MB-435
# U251 CNS = test system: U251 CNS
# SK-MEL-28 melanoma = test system: SK-MEL-28 melanoma
# NCI/ADR-RES ovarian = test system: NCI/ADR-RES ovarian
# MOLT-4 leukemia = test system: MOLT-4 leukemia
# SW-620 colon = test system: SW-620 colon
# A549 NSCLC = test system: A549 NSCLC
# IGROV1 ovarian = test system: IGROV1 ovarian
# HT29 colon = test system: HT29 colon
# 786-0 renal = test system: 786-0 renal
# SF-268 CNS = test system: SF-268 CNS
# NCI-H522 lung = test system: NCI-H522 lung
# SNB-19 CNS = test system: SNB-19 CNS
# HCC-2998 colon = test system: HCC-2998 colon
# KM12 colon = test system: KM12 colon
# HOP-62 NSCLC = test system: HOP-62 NSCLC
# NCI-H23 lung = test system: NCI-H23 lung
# UACC-257 melanoma = test system: UACC-257 melanoma
# OVCAR-5 ovarian = test system: OVCAR-5 ovarian
# T-47D breast = test system: T-47D breast
# SNB-75 CNS = test system: SNB-75 CNS
# SK-MEL-5 melanoma = test system: SK-MEL-5 melanoma
# SK-MEL-2 melanoma = test system: SK-MEL-2 melanoma
# ACHN renal = test system: ACHN renal
# SF-295 CNS = test system: SF-295 CNS
# HCT-15 colon = test system: HCT-15 colon
# MDA-MB-231 breast = test system: MDA-MB-231 breast
# OVCAR-8 ovarian = test system: OVCAR-8 ovarian
# SK-OV-3 ovarian = test system: SK-OV-3 ovarian
# HS 578T breast = test system: HS 578T breast
# OVCAR-3 ovarian = test system: OVCAR-3 ovarian
# UACC-62 melanoma = test system: UACC-62 melanoma
# COLO 205 colon = test system: COLO 205 colon
# HL-60(TB) leukemia = test system: HL-60(TB) leukemia
# CAKI-1 renal = test system: CAKI-1 renal
# SR leukemia = test system: SR leukemia
# PC-3 prostate = test system: PC-3 prostate
# TK-10 renal = test system: TK-10 renal
# HCT-116 colon = test system: HCT-116 colon
# LOX IMVI melanoma = test system: LOX IMVI melanoma
# K-562 leukemia = test system: K-562 leukemia
# NCI-H226 lung = test system: NCI-H226 lung
# SF-539 CNS = test system: SF-539 CNS
# RXF 393 renal = test system: RXF 393 renal
# EKVX NSCLC = test system: EKVX NSCLC
# MCF7 breast = test system: MCF7 breast
# M14 melanoma = test system: M14 melanoma
# MALME-3M melanoma = test system: MALME-3M melanoma
# SN12C renal = test system: SN12C renal
# DU-145 prostate = test system: DU-145 prostate
# OVCAR-4 ovarian = test system: OVCAR-4 ovarian
# BT-549 breast = test system: BT-549 breast
# CCRF-CEM leukemia = test system: CCRF-CEM leukemia
# NCI-H460 lung = test system: NCI-H460 lung
# HOP-92 NSCLC = test system: HOP-92 NSCLC
# UO-31 renal = test system: UO-31 renal
compound,measurement,setting,value
CC1=C2C(=O)[C@](C)(CO)C=C2C(=O)[C@](C)(O)C12CC2,GI50,RPMI-8226 leukemia,2.28 µM
same,TGI,RPMI-8226 leukemia,5.63 µM
same,GI50,MDA-MB-435,1.84 µM
same,TGI,MDA-MB-435,3.41 µM
same,GI50,U251 CNS,2.52 µM
same,TGI,U251 CNS,7.48 µM
same,GI50,SK-MEL-28 melanoma,2.06 µM
same,TGI,SK-MEL-28 melanoma,4.19 µM
same,GI50,NCI/ADR-RES ovarian,1.89 µM
same,TGI,NCI/ADR-RES ovarian,4.02 µM
same,GI50,MOLT-4 leukemia,3.23 µM
same,TGI,MOLT-4 leukemia,13.1 µM
same,GI50,SW-620 colon,1.86 µM
same,TGI,SW-620 colon,3.96 µM
same,GI50,A549 NSCLC,2.91 µM
same,TGI,A549 NSCLC,9.46 µM
same,GI50,IGROV1 ovarian,2.4 µM
same,TGI,IGROV1 ovarian,6.47 µM
same,GI50,HT29 colon,3.25 µM
same,TGI,HT29 colon,11.8 µM
same,GI50,786-0 renal,2.1 µM
same,TGI,786-0 renal,4.92 µM
same,GI50,SF-268 CNS,2.49 µM
same,TGI,SF-268 CNS,7.05 µM
same,GI50,NCI-H522 lung,2.04 µM
same,TGI,NCI-H522 lung,4.31 µM
same,GI50,SNB-19 CNS,3.05 µM
same,TGI,SNB-19 CNS,10.5 µM
same,GI50,HCC-2998 colon,1.72 µM
same,TGI,HCC-2998 colon,3.33 µM
same,GI50,KM12 colon,2.23 µM
same,TGI,KM12 colon,5 µM
same,GI50,HOP-62 NSCLC,3.2 µM
same,TGI,HOP-62 NSCLC,11.6 µM
same,GI50,NCI-H23 lung,1.84 µM
same,TGI,NCI-H23 lung,3.57 µM
same,GI50,UACC-257 melanoma,2.59 µM
same,TGI,UACC-257 melanoma,7.35 µM
same,GI50,OVCAR-5 ovarian,2.53 µM
same,TGI,OVCAR-5 ovarian,6.67 µM
same,GI50,T-47D breast,2.33 µM
same,TGI,T-47D breast,6.42 µM
same,GI50,SNB-75 CNS,1.26 µM
same,TGI,SNB-75 CNS,3.94 µM
same,GI50,SK-MEL-5 melanoma,1.81 µM
same,TGI,SK-MEL-5 melanoma,3.29 µM
same,GI50,SK-MEL-2 melanoma,2.39 µM
same,TGI,SK-MEL-2 melanoma,5.2 µM
same,GI50,ACHN renal,1.86 µM
same,TGI,ACHN renal,3.56 µM
same,GI50,SF-295 CNS,2.22 µM
same,TGI,SF-295 CNS,5.2 µM
same,GI50,HCT-15 colon,2.08 µM
same,TGI,HCT-15 colon,4.92 µM
same,GI50,MDA-MB-231 breast,1.98 µM
same,TGI,MDA-MB-231 breast,3.99 µM
same,GI50,OVCAR-8 ovarian,2.62 µM
same,TGI,OVCAR-8 ovarian,8.31 µM
same,GI50,SK-OV-3 ovarian,3.36 µM
same,TGI,SK-OV-3 ovarian,10.9 µM
same,GI50,HS 578T breast,2.01 µM
same,TGI,HS 578T breast,5 µM
same,GI50,OVCAR-3 ovarian,1.8 µM
same,TGI,OVCAR-3 ovarian,3.26 µM
same,GI50,UACC-62 melanoma,1.88 µM
same,TGI,UACC-62 melanoma,3.89 µM
same,GI50,COLO 205 colon,2.47 µM
same,TGI,COLO 205 colon,6.4 µM
same,GI50,HL-60(TB) leukemia,2.46 µM
same,TGI,HL-60(TB) leukemia,6.21 µM
same,GI50,CAKI-1 renal,1.63 µM
same,TGI,CAKI-1 renal,3.07 µM
same,GI50,SR leukemia,2.52 µM
same,TGI,SR leukemia,17.7 µM
same,GI50,PC-3 prostate,2.83 µM
same,TGI,PC-3 prostate,9.03 µM
same,GI50,TK-10 renal,2.23 µM
same,TGI,TK-10 renal,5.63 µM
same,GI50,HCT-116 colon,1.82 µM
same,TGI,HCT-116 colon,3.84 µM
same,GI50,LOX IMVI melanoma,1.72 µM
same,TGI,LOX IMVI melanoma,3.3 µM
same,GI50,K-562 leukemia,3.47 µM
same,TGI,K-562 leukemia,> 100 µM
same,GI50,NCI-H226 lung,2.18 µM
same,TGI,NCI-H226 lung,5.71 µM
same,GI50,SF-539 CNS,1.82 µM
same,TGI,SF-539 CNS,3.54 µM
same,GI50,RXF 393 renal,1.88 µM
same,TGI,RXF 393 renal,3.52 µM
same,GI50,EKVX NSCLC,3.05 µM
same,TGI,EKVX NSCLC,10.2 µM
same,GI50,MCF7 breast,1.47 µM
same,TGI,MCF7 breast,3.16 µM
same,GI50,M14 melanoma,1.8 µM
same,TGI,M14 melanoma,3.56 µM
same,GI50,MALME-3M melanoma,1.86 µM
same,TGI,MALME-3M melanoma,3.52 µM
same,GI50,SN12C renal,2.19 µM
same,TGI,SN12C renal,5.62 µM
same,GI50,DU-145 prostate,2.2 µM
same,TGI,DU-145 prostate,4.89 µM
same,GI50,OVCAR-4 ovarian,1.91 µM
same,TGI,OVCAR-4 ovarian,3.36 µM
same,GI50,BT-549 breast,1.75 µM
same,TGI,BT-549 breast,3.6 µM
same,GI50,CCRF-CEM leukemia,3.08 µM
same,TGI,CCRF-CEM leukemia,13.8 µM
same,GI50,NCI-H460 lung,2.49 µM
same,TGI,NCI-H460 lung,7.21 µM
same,GI50,HOP-92 NSCLC,2.12 µM
same,TGI,HOP-92 NSCLC,4.45 µM
same,GI50,UO-31 renal,1.66 µM
same,TGI,UO-31 renal,3.17 µM
